Experimental data reported in ChEMBL document CHEMBL5036351, “Discovery of novel, potent and orally efficacious inhibitor of neutral amino acid transporter B0AT1 (SLC6A19)” (Bioorg Med Chem Lett, 2021).
One block for each molecule: values may come before it.

Columns and labels:
[1] = Inhibition of B0AT1 (unknown origin) by radiolabled uptake assay; parameters: species or system Homo sapiens
[2] = Inhibition of B0AT1 (unknown origin) by FLIPR assay; parameters: species or system Homo sapiens
[3] = Volume of distribution at steady state in C57BL/6 mouse at 1 mg/kg, iv; format: ADME, organism-based; settings: in vivo, read-out: Vdss
[4] = Half life in C57BL/6 mouse at 1 mg/kg, iv; format: ADME, organism-based; settings: in vivo
[5] = MRT in C57BL/6 mouse at 1 mg/kg, iv; format: ADME, organism-based; settings: in vivo
[6] = Initial plasma concentration in C57BL/6 mouse at 1 mg/kg, iv; format: ADME, organism-based
[7] = test system: Mus musculus; test: Anti-obesity activity in high fat diet induced C57BL/6J mouse model assessed as change in body weight at 25 mg/kg, po dosed once daily for 28 days; format: functional; settings: time 28 day
[8] = AUC (0 to t) in C57BL/6 mouse at 1 mg/kg, iv; format: ADME, organism-based; parameters: dose 1 mg/kg; settings: in vivo
[9] = Metabolic stability in dog liver microsomes; format: ADME, Canis lupus familiaris, Microsome
[10] = MRT in C57BL/6 mouse at 3 mg/kg, po; format: ADME, organism-based; settings: in vivo
[11] = target: Cytochrome P450 2C19 (Homo sapiens, UniProt P33261); test: Inhibition of CYP2C19 (unknown origin); format: ADME
[12] = Half life in C57BL/6 mouse at 3 mg/kg, po; format: ADME, organism-based; settings: in vivo
[13] = Metabolic stability in mouse liver microsomes; format: ADME, Microsome
[14] = AUC (0 to t) in C57BL/6 mouse at 3 mg/kg, po; format: ADME, organism-based; parameters: dose 3 mg/kg; settings: in vivo
[15] = Tmax in C57BL/6 mouse at 3 mg/kg, po; format: ADME, organism-based; settings: in vivo
[16] = target: Cytochrome P450 2C9 (Homo sapiens, UniProt P11712); test: Inhibition of CYP2C9 (unknown origin); format: ADME
[17] = Cmax in C57BL/6 mouse at 3 mg/kg, po; format: ADME, organism-based; parameters: route oral, dose 3 mg/kg; settings: in vivo
[18] = Clearance in C57BL/6 mouse at 1 mg/kg, iv; format: ADME, organism-based; settings: in vivo
[19] = target: Cytochrome P450 3A4 (Homo sapiens, UniProt P08684); test: Inhibition of CYP3A4 (unknown origin); format: ADME
[20] = target: T1, Cytochrome P450 2C8 (Homo sapiens, UniProt P10632); test: Inhibition of CYP2C8 (unknown origin); format: ADME
T1 sequence (P10632 whole entry): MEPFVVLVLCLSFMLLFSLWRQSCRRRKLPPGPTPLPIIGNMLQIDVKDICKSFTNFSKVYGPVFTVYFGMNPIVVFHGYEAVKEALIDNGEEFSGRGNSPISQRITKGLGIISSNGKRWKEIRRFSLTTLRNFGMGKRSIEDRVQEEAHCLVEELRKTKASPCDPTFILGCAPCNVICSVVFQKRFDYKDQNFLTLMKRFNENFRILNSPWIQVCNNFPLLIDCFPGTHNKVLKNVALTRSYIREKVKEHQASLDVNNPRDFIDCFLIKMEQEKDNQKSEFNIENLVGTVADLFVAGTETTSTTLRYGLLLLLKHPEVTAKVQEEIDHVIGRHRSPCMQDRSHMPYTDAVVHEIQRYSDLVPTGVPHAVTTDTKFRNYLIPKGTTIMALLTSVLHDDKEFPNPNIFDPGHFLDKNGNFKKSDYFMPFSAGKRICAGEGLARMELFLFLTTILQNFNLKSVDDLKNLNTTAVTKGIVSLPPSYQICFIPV

[21] = Metabolic stability in human liver microsomes; format: ADME, Microsome
[22] = Bioavailability in C57BL/6 mouse at 1 mg/kg, iv; format: ADME, organism-based; settings: in vivo
[23] = Metabolic stability in rat liver microsomes; format: ADME, Microsome
[24] = test system: Mus musculus; test: Anti-obesity activity in C57BL/6J mouse model of diet-induced obesity assessed as reduction in area under curve at 25 mg/kg, po dosed once daily for 28 days by insulin tolerance test; format: functional; parameters: scale not given: the % may be the effect or the level left; settings: time 28 day

Sequence of Cytochrome P450 2C19 (P33261 whole entry): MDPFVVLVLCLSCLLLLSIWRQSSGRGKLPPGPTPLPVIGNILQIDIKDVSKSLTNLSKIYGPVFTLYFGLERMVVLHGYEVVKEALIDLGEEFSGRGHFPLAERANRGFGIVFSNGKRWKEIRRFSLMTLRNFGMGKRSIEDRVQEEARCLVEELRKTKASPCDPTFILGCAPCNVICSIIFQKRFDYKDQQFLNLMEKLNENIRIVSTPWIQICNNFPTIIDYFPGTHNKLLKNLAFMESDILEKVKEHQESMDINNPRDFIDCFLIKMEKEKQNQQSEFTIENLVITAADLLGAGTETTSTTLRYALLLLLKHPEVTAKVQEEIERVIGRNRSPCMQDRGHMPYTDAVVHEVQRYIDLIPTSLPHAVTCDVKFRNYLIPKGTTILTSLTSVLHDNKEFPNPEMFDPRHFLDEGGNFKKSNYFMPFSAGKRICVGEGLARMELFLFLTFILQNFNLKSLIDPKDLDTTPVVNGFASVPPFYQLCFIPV
Sequence of Cytochrome P450 3A4 (P08684 whole entry): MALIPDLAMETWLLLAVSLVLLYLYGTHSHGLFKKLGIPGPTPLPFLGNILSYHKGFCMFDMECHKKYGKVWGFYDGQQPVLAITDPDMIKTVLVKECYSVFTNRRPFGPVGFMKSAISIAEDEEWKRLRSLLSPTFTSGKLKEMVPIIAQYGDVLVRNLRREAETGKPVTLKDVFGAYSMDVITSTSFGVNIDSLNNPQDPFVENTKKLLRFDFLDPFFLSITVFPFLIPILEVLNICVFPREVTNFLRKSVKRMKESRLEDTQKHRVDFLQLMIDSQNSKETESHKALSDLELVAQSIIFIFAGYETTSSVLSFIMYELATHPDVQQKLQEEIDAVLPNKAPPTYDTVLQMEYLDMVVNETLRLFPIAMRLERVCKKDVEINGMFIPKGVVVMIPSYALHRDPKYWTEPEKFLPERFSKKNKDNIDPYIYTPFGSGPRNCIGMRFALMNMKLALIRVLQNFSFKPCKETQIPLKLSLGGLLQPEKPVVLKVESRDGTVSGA
Sequence of Cytochrome P450 2C9 (P11712 whole entry): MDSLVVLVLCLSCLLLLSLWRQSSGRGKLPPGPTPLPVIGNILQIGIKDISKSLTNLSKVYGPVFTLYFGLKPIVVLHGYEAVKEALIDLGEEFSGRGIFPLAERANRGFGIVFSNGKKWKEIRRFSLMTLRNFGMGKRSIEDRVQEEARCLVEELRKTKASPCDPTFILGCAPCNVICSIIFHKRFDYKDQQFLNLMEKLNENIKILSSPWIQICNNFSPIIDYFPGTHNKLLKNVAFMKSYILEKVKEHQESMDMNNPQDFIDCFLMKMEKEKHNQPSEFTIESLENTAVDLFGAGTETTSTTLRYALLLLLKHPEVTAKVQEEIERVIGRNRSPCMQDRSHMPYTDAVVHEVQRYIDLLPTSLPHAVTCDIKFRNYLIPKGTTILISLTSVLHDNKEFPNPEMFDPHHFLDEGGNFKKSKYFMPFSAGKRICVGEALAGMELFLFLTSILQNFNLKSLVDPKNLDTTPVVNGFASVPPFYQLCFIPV

IC50 [1]: > 1000 nM
Compound: O=S(=O)(Nc1ccc(S(=O)(=O)C(F)(F)F)cc1Oc1ccc(Cl)cc1)c1ccccc1

IC50 [1]: 690 nM
Compound: O=S(=O)(Nc1ccc(S(=O)(=O)C(F)(F)F)cc1Nc1ccccc1)c1ccccc1

IC50 [1]: > 1000 nM
Compound: COc1ccc(Oc2cc(S(=O)(=O)C(F)(F)F)ccc2NS(=O)(=O)c2ccccc2)cc1OC

IC50 [1]: > 10000 nM
Compound: CS(=O)(=O)c1ccc(NS(=O)(=O)c2ccccc2)c(Oc2ccccc2)c1

IC50 [1]: 600 nM
Compound: COc1ccc(Oc2cc(S(=O)(=O)C(F)(F)F)ccc2NS(=O)(=O)c2ccccc2)cc1

IC50 [1]: 460 nM
Compound: COc1cccc(Oc2cc(S(=O)(=O)C(F)(F)F)ccc2NS(=O)(=O)c2ccccc2)c1

IC50 [1]: 190 nM
Compound: O=S(=O)(Nc1ccc(S(=O)(=O)C(F)(F)F)cc1Oc1ccccc1)c1ccccc1

IC50 [1]: > 1000 nM
Compound: N#Cc1ccc(Oc2cc(S(=O)(=O)C(F)(F)F)ccc2NS(=O)(=O)c2ccccc2)cc1

IC50 [1]: > 1000 nM
Compound: NC(c1ccccc1)c1cc(S(=O)(=O)C(F)(F)F)ccc1NS(=O)(=O)c1ccccc1 (configuration not stated)

IC50 [1]: > 10000 nM
Compound: N=C(N)c1ccc(NS(=O)(=O)c2ccccc2)c(Oc2ccccc2)c1

IC50 [1]: 440 nM
Compound: Cc1cc(C)cc(Oc2cc(S(=O)(=O)C(F)(F)F)ccc2NS(=O)(=O)c2ccccc2)c1

Vd [3]: 0.35 L/kg
IC50 [1]: 35 nM
half-life [4]: 4.05 h
MRT [5]: 5.74 h
C0 [6]: 6680 ng/mL
AUC(0-t) [8]: 16200 ng·h/mL
Stability [9]: Stable
MRT [10]: 6.73 h
inhibition (INH) [11]: Active
half-life [12]: 5.39 h
Stability [13]: Stable
AUC(0-t) [14]: 31300 ng·h/mL
Tmax [15]: 2 h
inhibition (INH) [16]: Active
Cmax [17]: 3770 ng/mL
clearance [18]: 1.01 mL/min/kg
inhibition (INH) [19]: Active
inhibition (INH) [20]: Active
Stability [21]: Stable
bioavailability [22]: 64%
Stability [23]: Stable
Compound: O=S(=O)(Nc1ccc(S(=O)(=O)C(F)(F)F)cc1Oc1cc(F)cc(F)c1)c1ccccc1
Activity [7]: -8.9%
Activity [24]: 22.9%

IC50 [1]: > 1000 nM
Compound: O=S(=O)(Nc1ccc(S(=O)(=O)C(F)(F)F)cc1Oc1cccc(Cl)c1)c1ccccc1

IC50 [1]: 200 nM
Compound: O=S(=O)(Nc1ccc(S(=O)(=O)C(F)(F)F)cc1Oc1ccc(F)cc1)c1ccccc1

IC50 [1]: > 1000 nM
Compound: CN(C)c1cccc(Oc2cc(S(=O)(=O)C(F)(F)F)ccc2NS(=O)(=O)c2ccccc2)c1

IC50 [1]: 320 nM
Compound: O=S(=O)(Nc1ccc(S(=O)(=O)C(F)(F)F)cc1C(O)c1ccccc1)c1ccccc1 (configuration not stated)

IC50 [1]: > 10000 nM
Compound: O=S(=O)(Nc1ccc(F)cc1Oc1ccccc1)c1ccccc1

IC50 [1]: > 1000 nM
Compound: O=C(Nc1ccccc1)c1cc(S(=O)(=O)C(F)(F)F)ccc1NS(=O)(=O)c1ccccc1

IC50 [1]: 90 nM
Compound: O=S(=O)(Nc1ccc(S(=O)(=O)C(F)(F)F)cc1Oc1ccc(F)c(F)c1)c1ccccc1

IC50 [1]: 16000 nM
IC50 [2]: 20000 nM
Compound: COc1ccc(C(CCCN2CCOCC2)c2ccc(C)cc2)cc1 (configuration not stated)

IC50 [1]: > 1000 nM
Compound: O=S(=O)(Nc1ccc(S(=O)(=O)C(F)(F)F)cc1OC1CCCCC1)c1ccccc1

IC50 [1]: > 10000 nM
Compound: O=C(NO)c1ccc(NS(=O)(=O)c2ccccc2)c(Oc2ccccc2)c1

IC50 [1]: > 10000 nM
Compound: NC(=O)c1ccc(NS(=O)(=O)c2ccccc2)c(Oc2ccccc2)c1

IC50 [1]: > 10000 nM
Compound: O=S(=O)(Nc1ccc(S(=O)(=O)C(F)F)cc1Oc1ccccc1)c1ccccc1

IC50 [1]: > 10000 nM
Compound: O=S(=O)(Nc1ccc(C(F)(F)F)cc1Oc1ccccc1)c1ccccc1

IC50 [1]: 370 nM
IC50 [2]: 280 nM
Compound: CCNC(=O)/C=C/c1cccc(Br)c1 [CINROMIDE]

More lines, now with the values behind:

Compound: CN1C2CCC1CC(OC(c1ccccc1)c1ccccc1)C2 (configuration not stated)
IC50 [1]: 71000 nM
IC50 [2]: 44000 nM

Compound: N=C(NO)c1ccc(NS(=O)(=O)c2ccccc2)c(Oc2ccccc2)c1
IC50 [1]: > 10000 nM

Compound: Cc1cccc(Oc2cc(S(=O)(=O)C(F)(F)F)ccc2NS(=O)(=O)c2ccccc2)c1
IC50 [1]: 1000 nM

Compound: O=S(=O)(Nc1ccc(S(=O)(=O)C(F)(F)F)cc1Oc1ccc(Cl)c(Cl)c1)c1ccccc1
IC50 [1]: 1000 nM

Compound: Cc1ccc(Oc2cc(S(=O)(=O)C(F)(F)F)ccc2NS(=O)(=O)c2ccccc2)cc1
IC50 [1]: > 1000 nM

Compound: Cc1cc(C(=O)Nc2ccc(Cl)cc2C(F)(F)F)no1
IC50 [1]: 3900 nM
IC50 [2]: 1900 nM

Compound: O=S(=O)(Nc1ccc(S(=O)(=O)C(F)(F)F)cc1Sc1ccccc1)c1ccccc1
IC50 [1]: 800 nM

Compound: O=S(=O)(Nc1ccc(S(=O)(=O)C(F)(F)F)cc1OCc1ccccc1)c1ccccc1
IC50 [1]: 1000 nM

Compound: c1ccc(CCCN2CCCCC2Cc2ccccc2)cc1 (configuration not stated)
IC50 [1]: 78000 nM
IC50 [2]: 90000 nM

Compound: COC(=O)c1ccc(NS(=O)(=O)c2ccccc2)c(Oc2ccccc2)c1
IC50 [1]: > 10000 nM

Compound: O=S(=O)(Nc1ccc(S(=O)(=O)C(F)(F)F)cc1S(=O)(=O)c1ccccc1)c1ccccc1
IC50 [1]: > 1000 nM

Compound: N#Cc1ccc(NS(=O)(=O)c2ccccc2)c(Oc2ccccc2)c1
IC50 [1]: > 10000 nM

Compound: O=C(O)c1ccc(NS(=O)(=O)c2ccccc2)c(Oc2ccccc2)c1
IC50 [1]: > 10000 nM

Compound: O=S(=O)(Nc1ccc(S(=O)(=O)C(F)(F)F)cc1Oc1cccc(F)c1)c1ccccc1
IC50 [1]: 150 nM

Compound: O=S(=O)(Nc1ccc(S(=O)(=O)C(F)(F)F)cc1-c1ccccc1)c1ccccc1
IC50 [1]: 370 nM

Compound: O=C(c1ccccc1)c1cc(S(=O)(=O)C(F)(F)F)ccc1NS(=O)(=O)c1ccccc1
IC50 [1]: 600 nM

Compound: O=[N+]([O-])c1ccc(NS(=O)(=O)c2ccccc2)c(Oc2ccccc2)c1
IC50 [1]: 200 nM

Compound: O=S(=O)(Nc1ccc(S(=O)(=O)C(F)(F)F)cc1Oc1cccnc1)c1ccccc1
IC50 [1]: > 1000 nM

Compound: COc1cc(F)cc(Oc2cc(S(=O)(=O)C(F)(F)F)ccc2NS(=O)(=O)c2ccccc2)c1
IC50 [1]: 100 nM

Compound: O=S(=O)(Nc1ccc(-c2nn[nH]n2)cc1Oc1ccccc1)c1ccccc1
IC50 [1]: > 10000 nM

Compound: O=S(=O)(Nc1ccc(S(=O)(=O)C(F)(F)F)cc1Oc1ccc(C(F)(F)F)cc1)c1ccccc1
IC50 [1]: 520 nM

Compound: CS(=O)(=O)Nc1ccc([N+](=O)[O-])cc1Oc1ccccc1 [NIMESULIDE]
IC50 [1]: 23000 nM

Compound: CCc1ccc(CCOc2ccc(CC3SC(=O)NC3=O)cc2)nc1 (configuration not stated) [PIOGLITAZONE]
Activity [7]: 6%
Activity [24]: -36%
